Results from patent US20250108036A1, “COMPOSITIONS FOR REMOVING SENESCENT CELLS AND USES THEREOF” (LIFECEUTIX CO., LTD., priority 2021, published 2025).

How the values were obtained:
SAOS-2 = assay: CellTiter-Glo cell viability of senescent SAOS-2 cancer cells (Example 2-2); assay type: cell-based, human; conditions: DOX → LX (LX-112 5 μM)
Experimental: The standard for treating various cancers, including osteosarcoma, is repeated chemotherapy. Accordingly, aging was induced in SAOS-2 in the same manner as in Example 2-1, and then (i) treated again with doxorubicin (DOX→DOX) or (ii) treated with the LX-112 (5 μM) composition (DOX→LX-112).

p16, p21 = assay: qRT-PCR of p16 and p21 mRNA in replicative senescent foreskin cells (Example 4); assay type: cell-based, human; conditions: LX-112 3 μM; senescent untreated = 100%
Experimental: In the same manner as Example 3, natural aging of human foreskin cells was induced, treated with LX-112 at a concentration of 3 μM, and the amounts of the mRNA of p16 and p21, aging-related markers, were analyzed by qRT-PCR (quantitative real-time PCR). As a control group, foreskin cells before senescence induction were used. Specifically, cells were collected and treated with TRIzol Reagent (purchased from Thermo Fisher Scientific) to extract total RNA. The concentration of extracted total RNA was quantified using Nanodrop (purchased from Micro Digital). Genomic DNA was removed from the extracted total RNA using SuperScript IV VILO Master Mix with ezDNase Enzyme (purchased from Thermo Fisher Scientific), and cDNA was prepared. Using the synthesized cDNA, using the housekeeping gene GAPDH as a standard, qRT-PCR for p16 and p21 was performed using SFCgreen I qPCR Master Mix (purchased from SFC Probe), and was analyzed with CFX Connect Real-Time PCR Detection System (purchased from Bio Rad). […] Table 14 calculates the mRNA amounts of p16 and p21 after senescence was induced to 100%, respectively, and compared them with the mRNA amounts of p16 and p21 after treatment with LX-112.

[1] = system: MMP3, IL1β, MMP12, IL6, MMP13; assay: SASP mRNA qRT-PCR in organ tissues of naturally aged mice (Example 7-6); assay type: in vivo, C57BL6J mice; conditions: LX-112 70 mg/kg oral daily 21 days, aged untreated = 100%
Experimental: (§1) After 22-month-old female C57BL6J mice (purchased from KRIBB Laboratory Animal Resource Center) were adapted to the experimental environment for one week, the aged mice were randomized into an experimental group and a control group. 8-week-old mice that were not aged were used as controls. LX-112 was mixed with 0.5% CMC-Na solution (purchased from Sigma) and administered orally at a concentration of 70 mg/kg daily for 21 days. The control group was administered only the solution in the same volume. After drug administration was completed, the method described in each Example below was performed.
Using cDNA synthesized in the same manner as in Example 7-2, qRT-PCR was performed and analyzed for MMP3, IL1β, MMP12, IL6, and MMP13, which are aging-related inflammation and fibrosis secretory factors (SASP). […] Table 31 calculates the mRNA amount of each factor after senescence was induced as 100% and compared it with the mRNA amount of each factor after treatment with LX-112.

[2] = frailty tests (open field, wire hanging, grip strength, muscle mass) in naturally aged mice (Example 7-7); assay type: in vivo, C57BL6J mice
Experimental: as §1
To analyze aging-related senescence in mice, activity evaluation (open field test), endurance evaluation (wire hanging test), and muscle strength and grip strength test (grip strength test) were performed. Specifically, in the open field test, the mouse was placed in a white square box and the trajectory it moved for a certain period of time was measured. The measurement results were compared by analyzing the ratio of time spent in the central area to the total time. In the wire hanging test, the time the mouse could endure hanging on a wire was measured. In the muscle strength and grip test (grip strength test), the mouse was made to hold the grip strength measuring device (purchased from Jeongdo B&P) with its front paws by holding its tail, then pulled slightly until it missed, and the force applied to the measuring device just before missing was measured. […] Table 33 calculates the amount of each evaluation after induced aging as 100% and compares it with the amount of each evaluation after treatment with LX-112.

IL6, CXCL1, CXCL10, IL1β = assay: SASP mRNA qRT-PCR in doxorubicin-aged mice (Example 8-6); assay type: in vivo, C57BL6J mice; conditions: doxorubicin-aged mice, LX-112 70 mg/kg oral daily 21 days; DOX without LX = 100%
Experimental: After adapting 8-week-old male C57BL6J mice (purchased from KRIBB Laboratory Animal Resource Center) to the experimental environment for 1 week, doxorubicin, an anticancer drug, was administered intraperitoneally at a concentration of 10 mg/kg, and mice that were induced to age for more than 10 days were assigned to an experimental group and a control group. LX-112 was mixed with 0.5% CMC-Na solution (purchased from Sigma) and administered orally at a concentration of 70 mg/kg daily for 21 days. The control group was administered only the solution in the same volume. After drug administration was completed, the method described in each Example below was performed.
Using cDNA synthesized in the same manner as Example 7-6, qRT-PCR was performed and analyzed for aging-related inflammation and fibrosis secretory factors (SASP) such as IL6, CXCL1, CXCL10, and IL1β. […] Table 45 calculates the mRNA amount of each factor after aging was induced by treatment with the anticancer drug as 100% and compared it with the mRNA amount of each factor after treatment with LX-112.

[3] = open field test in obesity-aged mice (Example 9-4); assay type: in vivo, C57BL6J mice; conditions: LX-112 70 mg/kg oral daily 21 days, DIO without LX = 100%
Experimental: 15-week-old male C57BL6J mice (purchased from Jackson Laboratories), whose obesity was induced by a high-fat diet, were adapted to the experimental environment for one week, and then the mice were randomized into an experimental group and a control group. LX-112 was mixed with 0.5% CMC-Na solution (purchased from Sigma) and administered orally at a concentration of 70 mg/kg daily for 21 days. The control group was administered only the solution in the same volume. After drug administration was completed, the method described in each Example below was performed. Mice were sacrificed and the weight of adipose tissue in each area was measured.
Accordingly, the open field test was performed to analyze lethargy due to anxiety and depression caused by obesity in mice using the same method as Example 7-7. […] Table 58 calculates the amounts of activity after aging induced by obesity as 100% and compares it with the amount of activity evaluation after treatment with LX-112.

[4] = LX-112 70 mg/kg oral daily 21 days, aged untreated = 100%

O=c1c2ccccc2[se]n1CCn1[se]c2ccccc2c1=O [LX-112, 1,2-[bis(1,2-benzisoselenazolone-3(2H)-ketone)]ethane]
Survival (%) (SAOS-2; 3 d): 35 (±4) % | Survival (%) (SAOS-2; 7 d): 14 (±5) % | mRNA (%) p16 (p16, p21): 43 (±4) % | mRNA (%) p21 (p16, p21): 39 (±7) % | mRNA (%) Kidney IL1β [1]: 67 (±3.9) % | mRNA (%) Liver MMP3 [1]: 75 (±13) % | mRNA (%) Lung MMP 12 [1]: 81 (±13) % | mRNA (%) Muscle IL6 [1]: 65 (±21) % | mRNA (%) Skin MMP3 [1]: 92 (±6) % | mRNA (%) Skin MMP12 [1]: 78 (±14) % | mRNA (%) Skin MMP13 [1]: 95 (±2) % | weight of overall fat tissue ([2]; LX-112): increased | Grip Sterenght Test Strength (%) [2, 4]: 132 (±11) % | Open Field Test Time in Center (%) [2, 4]: 121 (±9) % | Wire Hanging Test Time (%) [2, 4]: 119 (±10) % | Muscle Mass (g) ([2]; quadriceps and gastrocnemius, LX-112 70 mg/kg oral daily 21 days): 0.7 (±0.1) g | mRNA (%) CXCL1, Liver (IL6, CXCL1, CXCL10, IL1β): 68 (±21.1) % | mRNA (%) CXCL1, eWAT (IL6, CXCL1, CXCL10, IL1β): 94.8 (±1.2)^ % | mRNA (%) CXCL10, Liver (IL6, CXCL1, CXCL10, IL1β): 84 (±11.5) % | mRNA (%) CXCL10, eWAT (IL6, CXCL1, CXCL10, IL1β): 74 (±11) % | mRNA (%) IL1β, Liver (IL6, CXCL1, CXCL10, IL1β): 42 (±35.2) % | mRNA (%) IL1β, eWAT (IL6, CXCL1, CXCL10, IL1β): 38 (±37) % | mRNA (%) IL6, Liver (IL6, CXCL1, CXCL10, IL1β): 42 (±23.5) % | mRNA (%) IL6, eWAT (IL6, CXCL1, CXCL10, IL1β): 48.6 (±12.5) % | Open Field Test Time in Center (%) [3]: 137.5 (±15) %
